Reference: patent US8344181B2, “N-2 adamantanyl-2-phenoxy-acetamide derivatives as 11-beta hydroxysteroid dehydrogenase inhibitors” (Janssen Pharmaceutica N.V., priority 2004, dated 2013)

Legend:
11β-HSD1 = target: T1, 11β-HSD1 (Mus musculus, UniProt P50172); assay: Cellular assay of 11β-HSD1 activity in differentiated 3T3-L1 cells; assay type: cell-based; details: 4 hour pre-incubation, 10^-5M to 10^-10M, read-out: HSD1 cellular 3T3-L1 Score
T1 construct: endogenous in cells; host or cells: 3T3-L1 (ATCC-CL-173), differentiated into adipocytes
T1 sequence (P50172 whole entry): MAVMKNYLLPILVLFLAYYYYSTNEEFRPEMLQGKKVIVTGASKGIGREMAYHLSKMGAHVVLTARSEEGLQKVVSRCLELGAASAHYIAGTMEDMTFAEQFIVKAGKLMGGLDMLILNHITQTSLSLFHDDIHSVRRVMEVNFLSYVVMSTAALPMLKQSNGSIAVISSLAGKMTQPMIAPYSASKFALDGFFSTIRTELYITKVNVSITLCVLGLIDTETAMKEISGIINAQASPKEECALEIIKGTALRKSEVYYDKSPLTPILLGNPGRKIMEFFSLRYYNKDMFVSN
Experimental: The effects on 11β-HSD1 activity was measured in differentiated 3T3-L1 cells and rat hepatocytes.
Mouse fibroblast 3T3-L1 cells (ATCC-CL-173) were seeded at a density of 16500 cells/ml in 12 well plates and grown for 7 days in DMEM medium (supplemented with 10% heat inactivated foetal calf serum, 2 mM glutamine and 25 mg gentamycin) at 37° C. in a humidified 5% CO2 atmosphere. Medium was refreshed twice a week. Fibroblasts were differentiated into adipocytes at 37° C. in a 5% CO2 humidified atmosphere in growth medium containing 2 μg/ml insulin, 55 μg/ml IBMX and 39.2 μg/ml dexamethasone.
Primary hepatocytes from male rats were seeded on normal Falcon 12 well plates at a density of 250000 cells/well and incubated for 16 hours at 37° C. in a 5% CO2 humidified atmosphere in DMEM-HAM's F12 medium containing 5% Nu-serum, 100 U/ml penicillin, 100 μg/ml streptomycin, 0.25 μg/ml amphotericin B, 50 μg/ml gentamycin sulfate, 5 μg/ml insulin and 392 ng/ml dexamethasone. Following a 4 hour pre-incubation with test compound, 0.5 μCi ^3H-cortisone or dehydrocorticosterone, was added to the 3T3-L1 cultures. One hour later, the medium was extracted on Extrelut^3-columns with 15 ml diethyl ether and the extract was analysed by HPLC as described above. The effects of JNJ-compounds on rat hepatocyte HSD1 activity was measured after an incubation period of 90 minutes with 0.5 μCi^3H-dehydrocorticosterone. Corticosterone formation was analysed by HPLC.
(§1) As for the enzymatic assays, the compounds to be tested were taken from a stock solution and tested at a final concentration ranging from 10^−5M to 10^−10M. From the thus obtained dose response curves, the pIC50 value was calculated and scored as follows; Score 1=pIC50 value<5, Score 2=pIC50 value in the range of 5 to 6, Score 3=pIC50 value>6. (in this table NT stands for Not Tested).

11β-HSD2 = target: T2, 11β-HSD2 (Homo sapiens, UniProt P80365); assay: Cellular assay of 11β-HSD2 activity in HepG2 cells; assay type: cell-based; details: 4 hour pre-incubation, 10^-5M to 10^-10M, read-out: HSD2 cellular HepG2 Score
T2 construct: endogenous in cells; host or cells: HepG2 (ATCC HB-8065)
T2 sequence (P80365 1-405): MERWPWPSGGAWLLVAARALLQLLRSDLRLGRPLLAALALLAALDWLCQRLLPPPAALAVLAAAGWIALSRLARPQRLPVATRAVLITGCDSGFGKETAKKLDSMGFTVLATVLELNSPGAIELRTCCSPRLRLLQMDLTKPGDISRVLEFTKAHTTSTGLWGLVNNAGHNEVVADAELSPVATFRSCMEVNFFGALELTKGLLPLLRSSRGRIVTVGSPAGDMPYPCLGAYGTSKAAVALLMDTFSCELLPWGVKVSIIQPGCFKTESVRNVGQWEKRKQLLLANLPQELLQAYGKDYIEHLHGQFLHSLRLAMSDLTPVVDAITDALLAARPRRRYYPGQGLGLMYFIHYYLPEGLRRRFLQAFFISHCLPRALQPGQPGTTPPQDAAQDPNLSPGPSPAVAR
Experimental: The effects on 11β-HSD2 activity was studied in HepG2 and LCC-PK1-cells HepG2-cells (ATCC HB-8065) were seeded in 12 well plates at a density of 100,000 cells/ml and grown at 37° C. in a humidified 5% CO2 atmosphere in MEM-Rega-3 medium supplemented with 10% heat inactivated foetal calf serum, 2 mM L-glutamine and sodium bicarbonate). Medium was refreshed twice a week.
Following a 4 hour pre-incubation with test compound, 0.5 μCi ^3H-cortisol or corticosterone, was added to the cultures. One hour later, the medium was extracted on Extrelut^3-columns with 15 ml diethyl ether and the extract was analysed by HPLC as described above.
as §1

SMILES	IC50 (11β-HSD1)	IC50 (11β-HSD2)
COC(=O)c1ccc(NC(C)(C)C(=O)NC2[C@@H]3CC4C[C@H]2C[C@](F)(C4)C3)cc1 (some centres unmarked) [Compound 96]	1000 to 10000 nM	–
CC(C)(Sc1ccc(Cl)cc1)C(=O)N[C@H]1[C@@H]2CC3C[C@H]1C[C@](O)(C3)C2 [Compound 4]	< 1000 nM	1000 to 10000 nM
Cc1ccc(OC(C)(C)C(=O)NC2C3CC4CC2CC(c2ccccc2)(C4)C3)cc1 (centres unmarked) [Compound 49]	1000 to 10000 nM	> 10000 nM
COc1cccc(NC(C)(C)C(=O)N[C@H]2[C@@H]3CC4C[C@H]2C[C@](F)(C4)C3)c1 [Compound 56]	< 1000 nM	> 10000 nM
CC(C)(Oc1ccc(Cl)cc1)C(=O)N[C@H]1[C@@H]2CC3C[C@H]1C[C@](N)(C3)C2 [Compound 95]	< 1000 nM	> 10000 nM
CC(=O)N[C@@]12CC3C[C@H](C1)C(NC(=O)C(C)(C)Nc1cccc(C(=O)O)c1)[C@@H](C3)C2 (some centres unmarked) [Compound 97]	> 10000 nM	–
CC(C)(Oc1ccccc1)C(=O)N[C@H]1[C@@H]2CC3C[C@H]1C[C@](O)(C3)C2 [Compound 69]	< 1000 nM	1000 to 10000 nM
O=C(N[C@H]1[C@@H]2CC3C[C@H]1C[C@](O)(C3)C2)[C@@H]1CCc2cc(F)ccc2O1 [Compound 22]	< 1000 nM	1000 to 10000 nM
CN(C)c1cccc(OC(C)(C)C(=O)N[C@H]2[C@@H]3CC4C[C@H]2C[C@](O)(C4)C3)c1 [Compound 18]	< 1000 nM	< 1000 nM
Cc1ccc(OC(C)(C)C(=O)N[C@H]2[C@@H]3CC4C[C@H]2C[C@](OCc2ccccc2)(C4)C3)cc1 [Compound 52]	< 1000 nM	1000 to 10000 nM
O=C(N[C@H]1[C@@H]2CC3C[C@H]1C[C@](O)(C3)C2)c1cc2ccccc2o1 [Compound 23]	< 1000 nM	> 10000 nM
CC(C)(Nc1cccc(C(F)(F)F)c1)C(=O)N[C@H]1[C@@H]2CC3C[C@H]1C[C@](NC(=O)CCl)(C3)C2 [Compound 80]	< 1000 nM	1000 to 10000 nM
Cc1ccccc1NC(C)(C)C(=O)N[C@H]1[C@@H]2CC3C[C@H]1C[C@](O)(C3)C2 [Compound 34]	< 1000 nM	1000 to 10000 nM
CC(C)(Oc1ccccc1Cl)C(=O)N[C@H]1[C@@H]2CC3C[C@H]1C[C@](N)(C3)C2 [Compound 99]	< 1000 nM	–
CC(C)(Nc1cccc(C(=O)O)c1)C(=O)N[C@H]1[C@@H]2CC3C[C@H]1C[C@](O)(C3)C2 [Compound 86]	1000 to 10000 nM	–
O=C(N[C@H]1[C@@H]2CC3C[C@H]1C[C@](O)(C3)C2)C1CCc2ccccc2O1 (some centres unmarked) [Compound 26]	< 1000 nM	< 1000 nM
CC(C)(Nc1ccccc1)C(=O)N[C@H]1[C@@H]2CC3C[C@H]1C[C@](O)(C3)C2 [Compound 54]	< 1000 nM	> 10000 nM
CC(=O)N[C@@]12CC3C[C@H](C1)[C@H](NC(=O)C(C)(C)Oc1ccc(Cl)cc1C)[C@@H](C3)C2 [Compound 29]	< 1000 nM	< 1000 nM
COC(=O)c1ccc(NC(C)(C)C(=O)N[C@H]2[C@@H]3CC4C[C@H]2C[C@](O)(C4)C3)cc1 [Compound 79]	< 1000 nM	–
CC(C)(Oc1cccc(Br)c1)C(=O)N[C@H]1[C@@H]2CC3C[C@H]1C[C@](NC(=O)OCCCl)(C3)C2 [Compound 98]	< 1000 nM	–
CC(C)(Oc1cc(C(F)(F)F)ccc1Cl)C(=O)N[C@H]1[C@@H]2CC3C[C@H]1C[C@](N)(C3)C2 [Compound 101]	< 1000 nM	–
COC(=O)c1cccc(NC(C)(C)C(=O)N[C@H]2[C@@H]3CC4C[C@H]2C[C@](F)(C4)C3)c1 [Compound 78]	< 1000 nM	–
Cc1cc(Cl)ccc1OC(C)(C)C(=O)N[C@H]1[C@@H]2CC3C[C@H]1C[C@](NC(=O)NC(C)(C)C)(C3)C2 [Compound 71]	1000 to 10000 nM	–
CC(C)(C(=O)N[C@H]1[C@@H]2CC3C[C@H]1C[C@](O)(C3)C2)[S+]([O-])c1ccc(Cl)cc1 (some centres unmarked) [Compound 5]	< 1000 nM	–
CC(C)(Oc1cccc(C(F)(F)F)c1Cl)C(=O)N[C@H]1[C@@H]2CC3C[C@H]1C[C@](N)(C3)C2 [Compound 100]	< 1000 nM	–
CC(C)(Nc1cccc(C(=O)O)c1)C(=O)N[C@H]1[C@@H]2CC3C[C@H]1C[C@](F)(C3)C2 [Compound 82]	1000 to 10000 nM	–

Continued, values first:

IC50 (11β-HSD1)	IC50 (11β-HSD2)	SMILES
< 1000 nM	–	COc1cc(F)ccc1OC(C)(C)C(=O)N[C@H]1[C@@H]2CC3C[C@H]1C[C@](N)(C3)C2 [Compound 105]
< 1000 nM	> 10000 nM	CC(C)(Nc1cccc(C(F)(F)F)c1)C(=O)N[C@H]1[C@@H]2CC3C[C@H]1C[C@](F)(C3)C2 [Compound 61]
< 1000 nM	> 10000 nM	CC(C)(Oc1cccc(Br)c1)C(=O)N[C@H]1[C@@H]2CC3C[C@H]1C[C@](N)(C3)C2 [Compound 93]
< 1000 nM	< 1000 nM	Cc1c(C)c2c(c(C)c1O)CCC(C)(C(=O)N[C@H]1[C@@H]3CC4C[C@H]1C[C@](O)(C4)C3)O2 (some centres unmarked) [Compound 28]
< 1000 nM	1000 to 10000 nM	O=C(N[C@H]1[C@@H]2CC3C[C@H]1C[C@](O)(C3)C2)C1Cc2ccccc2O1 (some centres unmarked) [Compound 24]
< 1000 nM	1000 to 10000 nM	Cc1cc(Cl)ccc1OC(C)(C)C(=O)N[C@H]1[C@@H]2CC3C[C@H]1C[C@](NC(=O)CCl)(C3)C2 [Compound 31]
< 1000 nM	> 10000 nM	CC(=O)N[C@@]12CC3C[C@H](C1)[C@H](NC(=O)C(C)(C)Nc1cccc(C(F)(F)F)c1)[C@@H](C3)C2 [Compound 65]
< 1000 nM	1000 to 10000 nM	CC(=O)N[C@@]12CC3C[C@H](C1)[C@H](NC(=O)C(C)(C)Nc1cccc(C)c1)[C@@H](C3)C2 [Compound 70]
< 1000 nM	1000 to 10000 nM	Cc1cccc(OC(C)(C)C(=O)N[C@H]2[C@@H]3CC4C[C@H]2C[C@](O)(C4)C3)c1 [Compound 10]
< 1000 nM	> 10000 nM	Cc1ccc(S(=O)(=O)N[C@@]23CC4C[C@H](C2)[C@H](NC(=O)C(C)(C)Oc2ccc(Cl)cc2C)[C@@H](C4)C3)cc1 [Compound 77]
< 1000 nM	1000 to 10000 nM	CC(C)(Oc1cccc(C(F)(F)F)c1)C(=O)N[C@H]1[C@@H]2CC3C[C@H]1C[C@](NS(=O)(=O)CC(F)(F)F)(C3)C2 [Compound 88]
< 1000 nM	1000 to 10000 nM	O=C(N[C@H]1[C@@H]2CC3C[C@H]1C[C@](O)(C3)C2)C1COc2ccccc2O1 (some centres unmarked) [Compound 8]
< 1000 nM	> 10000 nM	CC(C)(Nc1ccccc1)C(=O)N[C@H]1[C@@H]2CC3C[C@H]1C[C@](F)(C3)C2 [Compound 68]
< 1000 nM	> 10000 nM	Cc1ccc(NC(C)(C)C(=O)N[C@H]2[C@@H]3CC4C[C@H]2C[C@](F)(C4)C3)cc1 [Compound 62]
< 1000 nM	–	CC(C)(Oc1ccccc1C(F)(F)F)C(=O)N[C@H]1[C@@H]2CC3C[C@H]1C[C@](N)(C3)C2 [Compound 102]
< 1000 nM	–	Cc1ccccc1OC(C)(C)C(=O)N[C@H]1[C@@H]2CC3C[C@H]1C[C@](N)(C3)C2 [Compound 103]
< 1000 nM	> 10000 nM	CC(=O)N[C@@]12CC3C[C@H](C1)[C@H](NC(=O)C(C)(C)Nc1ccc(C)cc1)[C@@H](C3)C2 [Compound 37]
< 1000 nM	< 1000 nM	CC(C)(Oc1ccccc1Br)C(=O)N[C@H]1[C@@H]2CC3C[C@H]1C[C@](O)(C3)C2 [Compound 15]
< 1000 nM	> 10000 nM	COc1ccc(NC(C)(C)C(=O)N[C@H]2[C@@H]3CC4C[C@H]2C[C@](O)(C4)C3)cc1 [Compound 58]
< 1000 nM	1000 to 10000 nM	CC(C)(Oc1cccc(Br)c1)C(=O)N[C@H]1[C@@H]2CC3C[C@H]1C[C@](NC(=O)CCl)(C3)C2 [Compound 90]
